Data on one compound can be found in patent US12454520B2, “Protein degraders and uses thereof” (Kymera Therapeutics, Inc., priority 2018, dated 2025).

This test has as its target T1, SMARCA2 (Homo sapiens, UniProt P51531).
T1 construct: endogenous in cells; host or cells: NCI-H1299
Description: MSD SMARCA2 degradation in NCI-H1299 cell line. The test is classed as cell-based. The settings on record: NCI-H1299 cells, percentage of SMARCA2 degradation after 24 hours. The method, then: Example 14. MSD SMARCA2 Degration in NCI-H1299 Cell Line
Cell Culture: Cells were cultured in exponential growth phase.
Compound Preparation and Treatment: NCI-H1299 cells were seeded into the 96-well plate at 4.0*10^4 cells per 100ul per well. Incubate the plate in the incubator overnight. The next day, compounds were diluted to designed stock concentration by TECAN, then perform a 3 fold, 9-point dilution via transferring 15 uL compound into 30 μL DMSO using Apricot. 200 nL diluted compound from compound source plate were transferred into the 96-intermediate plate as designated by using Echo550, followed with 100 ul culture medium to make the 2× compound solution. Cell plate were changed with 80 ul of fresh culture medium and 80 ul of 2× compound solution was added into the well to achieve the final designed concentration. Cell plate was then shaken at 720 rpm for 5 min and incubated for 24 hours in the incubator.
Sample Preparation: Media was aspirated from the cultures and the plate was washed with PBS twice. 60 ul of pre-chilled PIPA lysis buffer (Boston BioProducts BP-115D) with protease inhibitor were directly added into the well to lyze the cells for 20 minutes at 4° C. Cell lysates were collected.
MSD Procedure: The MSD plate was coated with 40 ul cell lysate and incubated at 4° C. overnight. The next day, the MSD coated bare plate was washed 3 times with 150 ul 1×TBST per well, blocked with 150 ul of blocking buffer per well, and shaken for 1 hour at RT, 600 rpm. Blocking buffer was 3% Blocker A in TBST. MSD plate was then washed 3 times with 150 ul 1×TBST per well and Primary Detection antibody (Rabbit anti-SMARCA2/BRM antibody, 100 μg/ml, ab223735) was added to a final [conc.]: 0.3 ug/ml, 25ul/well and shaken for 1 hour at RT, 600 rpm. Antibody was prepared in Antibody Detection buffer (1% Blocker A in 1×TBST). The MSD plate was then washed 3 times with 150 ul 1×TBST per well. Secondary Detection antibody (SULFO-TAG anti-species antibody) was then added to a final [conc.]: 1 μg/ml, 25 ul/well, and shaken for 1 hour at RT, 600 rpm. Antibodies were prepared in Antibody Detection buffer (1% Blocker A in 1×TBST). MSD plate was washed 3 times with 150 ul 1×TBST per well and 2×MSD reading buffer was added, 150 ul per well, and diluted from 4× with water. MSD instrument was then read.
Data Analysis: The percentage of relative level of SMARCA2 level was calculated following equation below.
LC: A2780, SMARCA2 negative cells. HC: NCI-H1299 cells treated with DMSO.
The letter codes for the percentage of SMARCA2 degradation after 24 hours (Dmax %) include: A (>90% degradation), B (>70-90% degradation), C (50-70% degradation), and D (<50% degradation).

T1 sequence (P51531 whole entry): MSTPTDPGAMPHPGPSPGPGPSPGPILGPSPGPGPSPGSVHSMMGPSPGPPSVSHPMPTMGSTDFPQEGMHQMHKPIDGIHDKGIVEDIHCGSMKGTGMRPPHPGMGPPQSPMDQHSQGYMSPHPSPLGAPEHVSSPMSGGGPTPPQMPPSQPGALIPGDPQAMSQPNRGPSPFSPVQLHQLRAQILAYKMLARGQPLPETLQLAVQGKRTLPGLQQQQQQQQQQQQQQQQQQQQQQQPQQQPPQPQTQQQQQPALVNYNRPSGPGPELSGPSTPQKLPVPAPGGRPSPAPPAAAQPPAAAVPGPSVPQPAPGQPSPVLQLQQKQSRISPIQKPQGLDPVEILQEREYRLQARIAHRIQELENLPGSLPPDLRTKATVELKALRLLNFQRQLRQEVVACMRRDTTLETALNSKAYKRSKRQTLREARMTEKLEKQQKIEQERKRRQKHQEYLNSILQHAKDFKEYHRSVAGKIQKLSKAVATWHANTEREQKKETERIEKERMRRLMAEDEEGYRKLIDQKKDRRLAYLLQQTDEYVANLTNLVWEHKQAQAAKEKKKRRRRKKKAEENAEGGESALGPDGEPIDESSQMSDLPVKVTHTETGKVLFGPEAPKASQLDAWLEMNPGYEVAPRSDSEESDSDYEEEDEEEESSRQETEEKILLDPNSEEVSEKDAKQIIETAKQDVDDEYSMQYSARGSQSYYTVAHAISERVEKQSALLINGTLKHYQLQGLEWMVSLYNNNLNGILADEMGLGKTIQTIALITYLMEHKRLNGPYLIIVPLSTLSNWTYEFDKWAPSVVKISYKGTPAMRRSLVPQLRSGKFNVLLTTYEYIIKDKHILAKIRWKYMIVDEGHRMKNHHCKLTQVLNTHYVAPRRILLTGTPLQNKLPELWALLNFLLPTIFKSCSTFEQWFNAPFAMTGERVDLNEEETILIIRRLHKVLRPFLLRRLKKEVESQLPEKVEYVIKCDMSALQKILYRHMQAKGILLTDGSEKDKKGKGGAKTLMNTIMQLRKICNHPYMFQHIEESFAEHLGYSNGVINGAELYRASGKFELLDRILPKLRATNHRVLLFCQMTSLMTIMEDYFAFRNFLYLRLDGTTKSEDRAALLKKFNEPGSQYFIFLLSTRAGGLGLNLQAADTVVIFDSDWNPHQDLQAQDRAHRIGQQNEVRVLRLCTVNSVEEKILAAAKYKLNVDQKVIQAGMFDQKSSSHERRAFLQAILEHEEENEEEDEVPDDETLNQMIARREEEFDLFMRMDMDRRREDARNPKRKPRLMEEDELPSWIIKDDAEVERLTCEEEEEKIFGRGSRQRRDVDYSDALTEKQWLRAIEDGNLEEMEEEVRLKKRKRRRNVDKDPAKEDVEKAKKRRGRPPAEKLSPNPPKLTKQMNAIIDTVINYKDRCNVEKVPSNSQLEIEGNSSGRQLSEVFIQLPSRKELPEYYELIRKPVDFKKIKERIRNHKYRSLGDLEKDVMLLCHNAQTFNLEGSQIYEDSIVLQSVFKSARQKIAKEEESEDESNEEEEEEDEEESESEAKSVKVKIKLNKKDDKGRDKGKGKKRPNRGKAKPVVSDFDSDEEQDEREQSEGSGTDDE

The compound `Nc1nnc(-c2ccccc2O)cc1-c1cnn(C2CCN(Cc3cn(Cc4ccc5c(c4)c4cccnc4n5C4CCC(=O)NC4=O)nn3)CC2)c1` (stereo not shown) [I-146, 3-(6-((4-((4-(4-(3-amino-6-(2-hydroxyphenyl)pyridazin-4-yl)-1H-pyrazol-1-yl)piperidin-1-yl)methyl)-1H-1,2,3-triazol-1-yl)methyl)-9H-pyrido[2,3-b]indol-9-yl)piperidine-2,6-dione] yielded a Dmax of 70 to 90%.
